Test results as given in PubChem BioAssay (NCI).
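Where inhibition never reached the appropriate level, the endpoint shown equals the highest concentration tested. Otherwise, values were interpolated linearly from a five-concentration, 48-hour dose response in 96-well plates. The concentration for full growth arrest is given as TGI.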

How the values were obtained:
Assay in all cases: NCI anticancer screen, dose series, 48 h
786-0 renal = tested on: 786-0 renal
A498 renal = tested on: A498 renal
A549 NSCLC = tested on: A549 NSCLC
ACHN renal = tested on: ACHN renal
BT-549 breast = tested on: BT-549 breast
CAKI-1 renal = tested on: CAKI-1 renal
CCRF-CEM leukemia = tested on: CCRF-CEM leukemia
COLO 205 colon = tested on: COLO 205 colon
DU-145 prostate = tested on: DU-145 prostate
EKVX NSCLC = tested on: EKVX NSCLC
HCC-2998 colon = tested on: HCC-2998 colon
HCT-116 colon = tested on: HCT-116 colon
HCT-15 colon = tested on: HCT-15 colon
HL-60(TB) leukemia = tested on: HL-60(TB) leukemia
HOP-62 NSCLC = tested on: HOP-62 NSCLC
HOP-92 NSCLC = tested on: HOP-92 NSCLC
HS 578T breast = tested on: HS 578T breast
HT29 colon = tested on: HT29 colon
IGROV1 ovarian = tested on: IGROV1 ovarian
K-562 leukemia = tested on: K-562 leukemia
KM12 colon = tested on: KM12 colon
LOX IMVI melanoma = tested on: LOX IMVI melanoma
M14 melanoma = tested on: M14 melanoma
MALME-3M melanoma = tested on: MALME-3M melanoma
MCF7 breast = tested on: MCF7 breast
MDA-MB-435 = tested on: MDA-MB-435
MDA-N = tested on: MDA-N
MOLT-4 leukemia = tested on: MOLT-4 leukemia
NCI-H226 lung = tested on: NCI-H226 lung
NCI-H23 lung = tested on: NCI-H23 lung
NCI-H460 lung = tested on: NCI-H460 lung
NCI-H522 lung = tested on: NCI-H522 lung
NCI/ADR-RES ovarian = tested on: NCI/ADR-RES ovarian
OVCAR-3 ovarian = tested on: OVCAR-3 ovarian
OVCAR-4 ovarian = tested on: OVCAR-4 ovarian
OVCAR-5 ovarian = tested on: OVCAR-5 ovarian
OVCAR-8 ovarian = tested on: OVCAR-8 ovarian
PC-3 prostate = tested on: PC-3 prostate
RPMI-8226 leukemia = tested on: RPMI-8226 leukemia
RXF 393 renal = tested on: RXF 393 renal
SF-268 CNS = tested on: SF-268 CNS
SF-295 CNS = tested on: SF-295 CNS
SF-539 CNS = tested on: SF-539 CNS
SK-MEL-2 melanoma = tested on: SK-MEL-2 melanoma
SK-MEL-28 melanoma = tested on: SK-MEL-28 melanoma
SK-MEL-5 melanoma = tested on: SK-MEL-5 melanoma
SK-OV-3 ovarian = tested on: SK-OV-3 ovarian
SN12C renal = tested on: SN12C renal
SNB-75 CNS = tested on: SNB-75 CNS
SR leukemia = tested on: SR leukemia
SW-620 colon = tested on: SW-620 colon
T-47D breast = tested on: T-47D breast
UACC-257 melanoma = tested on: UACC-257 melanoma
UACC-62 melanoma = tested on: UACC-62 melanoma
UO-31 renal = tested on: UO-31 renal
MDA-MB-231 breast = tested on: MDA-MB-231 breast
SNB-19 CNS = tested on: SNB-19 CNS
TK-10 renal = tested on: TK-10 renal
U251 CNS = tested on: U251 CNS

Q: What does the source list for `O=C(Nc1c(Cl)cccc1Cl)c1c(Cl)c(Cl)c(Cl)c(Cl)c1-c1nc2ccccc2[nH]1`?
A: TGI (786-0 renal): > 100 µM; TGI (A498 renal): 54.6 µM; TGI (A549 NSCLC): > 100 µM; TGI (ACHN renal): > 100 µM; TGI (BT-549 breast): > 100 µM; TGI (CAKI-1 renal): > 100 µM; TGI (CCRF-CEM leukemia): > 100 µM; TGI (COLO 205 colon): > 100 µM; TGI (DU-145 prostate): > 100 µM; TGI (EKVX NSCLC): > 100 µM; TGI (HCC-2998 colon): > 100 µM; TGI (HCT-116 colon): > 100 µM; TGI (HCT-15 colon): > 100 µM; TGI (HL-60(TB) leukemia): > 100 µM; TGI (HOP-62 NSCLC): > 100 µM; TGI (HOP-92 NSCLC): > 100 µM; TGI (HS 578T breast): > 100 µM; TGI (HT29 colon): > 100 µM; TGI (IGROV1 ovarian): > 100 µM; TGI (K-562 leukemia): > 100 µM; TGI (KM12 colon): > 100 µM; TGI (LOX IMVI melanoma): > 100 µM; TGI (M14 melanoma): > 100 µM; TGI (MALME-3M melanoma): > 100 µM; TGI (MCF7 breast): > 100 µM; TGI (MDA-MB-435): > 100 µM; TGI (MDA-N): > 100 µM; TGI (MOLT-4 leukemia): > 100 µM; TGI (NCI-H226 lung): > 100 µM; TGI (NCI-H23 lung): > 100 µM; TGI (NCI-H460 lung): > 100 µM; TGI (NCI-H522 lung): > 100 µM; TGI (NCI/ADR-RES ovarian): > 100 µM; TGI (OVCAR-3 ovarian): > 100 µM; TGI (OVCAR-4 ovarian): > 100 µM; TGI (OVCAR-5 ovarian): > 100 µM; TGI (OVCAR-8 ovarian): > 100 µM; TGI (PC-3 prostate): > 100 µM; TGI (RPMI-8226 leukemia): > 100 µM; TGI (RXF 393 renal): 45.2 µM; TGI (SF-268 CNS): > 100 µM; TGI (SF-295 CNS): > 100 µM; TGI (SF-539 CNS): > 100 µM; TGI (SK-MEL-2 melanoma): > 100 µM; TGI (SK-MEL-28 melanoma): > 100 µM; TGI (SK-MEL-5 melanoma): > 100 µM; TGI (SK-OV-3 ovarian): > 100 µM; TGI (SN12C renal): > 100 µM; TGI (SNB-75 CNS): 84.9 µM; TGI (SR leukemia): > 100 µM; TGI (SW-620 colon): > 100 µM; TGI (T-47D breast): > 100 µM; TGI (UACC-257 melanoma): > 100 µM; TGI (UACC-62 melanoma): > 100 µM; TGI (UO-31 renal): > 100 µM

Q: How did the TGI (786-0 renal) turn out when `CCCC(=O)N(C(=O)CCC)C1=C(Cl)C(=O)c2ccccc2C1=O` was run?
A: The TGI was 30.8 µM.

Q: What about the TGI (A498 renal) of the same compound?
A: Its TGI is 37.6 µM.

Q: And the TGI (A549 NSCLC)?
A: The TGI was greater than 52.8 µM.

Q: What about the TGI (ACHN renal) of the same compound?
A: Its TGI is 2.71 µM.

Q: And the TGI (BT-549 breast)?
A: The TGI was 10.3 µM.

Q: What about the TGI (CAKI-1 renal) of the same compound?
A: Its TGI is 5.79 µM.

Q: What about the TGI (CCRF-CEM leukemia) of the same compound?
A: The TGI was greater than 26.7 µM.

Q: And the TGI (COLO 205 colon)?
A: The TGI was greater than 23.3 µM.

Q: What about the TGI (DU-145 prostate) of the same compound?
A: Its TGI is 45.1 µM.

Q: What about the TGI (EKVX NSCLC) of the same compound?
A: The TGI was greater than 42.5 µM.

Q: And the TGI (HCC-2998 colon)?
A: Its TGI is 16.4 µM.

Q: What about the TGI (HCT-116 colon) of the same compound?
A: Its TGI is greater than 33.1 µM.

Q: What about the TGI (HCT-15 colon) of the same compound?
A: The TGI was 14.2 µM.

Q: And the TGI (HOP-62 NSCLC)?
A: The TGI was 24.1 µM.

Q: What about the TGI (HOP-92 NSCLC) of the same compound?
A: Its TGI is 45 µM.

Q: What about the TGI (HS 578T breast) of the same compound?
A: The TGI was 79.7 µM.

Q: What about the TGI (HT29 colon) of the same compound?
A: Its TGI is 31.2 µM.

Q: What about the TGI (IGROV1 ovarian) of the same compound?
A: The TGI was 20.9 µM.

Q: What about the TGI (K-562 leukemia) of the same compound?
A: The TGI was 5.01 µM.

Q: And the TGI (KM12 colon)?
A: The TGI was 15.5 µM.

Q: What about the TGI (LOX IMVI melanoma) of the same compound?
A: Its TGI is 17.8 µM.

Q: What about the TGI (M14 melanoma) of the same compound?
A: The TGI was 25.8 µM.

Q: And the TGI (MDA-MB-231 breast)?
A: The TGI was greater than 67.5 µM.

Q: And the TGI (MDA-MB-435)?
A: The TGI was 21.4 µM.

Q: And the TGI (MDA-N)?
A: The TGI was 28.2 µM.

Q: And the TGI (MOLT-4 leukemia)?
A: Its TGI is 10.7 µM.

Q: And the TGI (NCI-H226 lung)?
A: Its TGI is 23.8 µM.

Q: What about the TGI (NCI-H23 lung) of the same compound?
A: Its TGI is 15.8 µM.

Q: What about the TGI (NCI-H460 lung) of the same compound?
A: Its TGI is 29.3 µM.

Q: And the TGI (NCI/ADR-RES ovarian)?
A: Its TGI is 61.3 µM.

Q: And the TGI (OVCAR-3 ovarian)?
A: Its TGI is 11.8 µM.

Q: What about the TGI (OVCAR-4 ovarian) of the same compound?
A: Its TGI is 82.8 µM.

Q: What about the TGI (OVCAR-5 ovarian) of the same compound?
A: Its TGI is 26 µM.

Q: What about the TGI (OVCAR-8 ovarian) of the same compound?
A: The TGI was 25.3 µM.

Q: And the TGI (PC-3 prostate)?
A: Its TGI is 40 µM.

Q: And the TGI (RXF 393 renal)?
A: The TGI was 7.1 µM.

Q: What about the TGI (SF-268 CNS) of the same compound?
A: The TGI was greater than 45.2 µM.

Q: What about the TGI (SF-295 CNS) of the same compound?
A: The TGI was 33.3 µM.

Q: And the TGI (SF-539 CNS)?
A: The TGI was 15.4 µM.

Q: And the TGI (SK-MEL-2 melanoma)?
A: Its TGI is 24 µM.

Q: What about the TGI (SK-MEL-28 melanoma) of the same compound?
A: The TGI was 13.6 µM.

Q: What about the TGI (SK-MEL-5 melanoma) of the same compound?
A: Its TGI is greater than 23.9 µM.

Q: And the TGI (SK-OV-3 ovarian)?
A: Its TGI is 34.4 µM.

Q: And the TGI (SN12C renal)?
A: The TGI was 52.5 µM.

Q: What about the TGI (SNB-19 CNS) of the same compound?
A: The TGI was 24.4 µM.

Q: What about the TGI (SNB-75 CNS) of the same compound?
A: Its TGI is 15.3 µM.

Q: What about the TGI (SR leukemia) of the same compound?
A: Its TGI is greater than 54.1 µM.

Q: And the TGI (SW-620 colon)?
A: The TGI was 14.5 µM.

Q: And the TGI (T-47D breast)?
A: Its TGI is greater than 100 µM.

Q: What about the TGI (TK-10 renal) of the same compound?
A: Its TGI is 14.8 µM.

Q: And the TGI (U251 CNS)?
A: Its TGI is 23.5 µM.

Q: And the TGI (UACC-257 melanoma)?
A: Its TGI is 11.6 µM.

Q: And the TGI (UACC-62 melanoma)?
A: The TGI was 11.1 µM.

Q: And the TGI (UO-31 renal)?
A: Its TGI is 4.75 µM.
